{"source": "patent US20020068057A1", "about": "“TREATMENT OF AUTOIMMUNE AND INFLAMMATORY DISORDERS” (priority 1996, published 2002)", "key": {"[1]": {"test_system": "collagen type II induced arthritis", "assay": "Collagen-induced arthritis, Example 2B: limb involvement", "type": "in vivo, mouse", "conditions": "2 mg/kg body weight i.p.", "experimental": "(§1) Male DBA/1 mice were immunized intradermally with 100 μg of bovine type II collagen emulsified in complete Freund's adjuvant (Difco Laboratories, East Molsey, UK). The mean day of onset of arthritis was approximately one month after immunization. After the onset of clinically evident arthritis (erythema and/or swelling), mice were injected intraperitoneally with therapeutic agents. Arthritis was monitored for clinical score and paw swelling (measured with calipers) for 10 days, after which the mice were sacrificed and joints were processed for histology. Sera were collected for analysis on day 10. Therapeutic agents were administered on day 1 (onset), day 4 and day 7. The therapeutic agents included TNF receptor/IgG fusion protein (p55-sf2), anti-TNF antibody, anti-CD4 antibody, and methylprednisolone acetate.\nUsing the Experimental Procedure described above, groups of mice were subjected to treatment with TNF receptor/IgG protein (2 μg) (18 mice), TNF receptor/IgG protein (20 μg) (18 mice), TNF receptor/IgG protein (100 μg) (12 mice), anti-TNF monoclonal antibody (mAb) (300 μg) (17 mice), methylprednisolone acetate (6 mice), an irrelevant human IgG1 monoclonal antibody (mAb) (6 mice), or saline (control). The TNF receptor/IgG fusion protein, herein referred to as p55-sf2, (Butler et al., Cytokine (in press): (1994), was provided by Centocor, Inc., Malvern Pa.; it is dimeric and consists of the human p55 TNF receptor (extracellular domains) fused to a partial J sequence followed by the whole of the constant region of the hunan IgG1 heavy chain, itself associated with the constant region of a kappa light chain. The […] antibody was TN3-19.12, a neutralizing hamster IgG1 anti-TNFα/β monoclonal antibody (Sheehan, K. C. et al., J. Immunology 142:3884-3893 (1989)), and was provided by R. Schreiber, Washington University Medical School (St. Louis, Mo., USA), in conjunction with Celltech (Slough, UK). […]"}, "[2]": {"test_system": "collagen type II induced arthritis", "assay": "Collagen-induced arthritis, Example 2B: histology of PIP joints", "type": "in vivo, mouse", "conditions": "2 mg/kg body weight i.p.", "experimental": "as §1\nUsing the Experimental Procedure described above, groups of mice were subjected to treatment with TNF receptor/IgG protein (2 μg) (18 mice), TNF receptor/IgG protein (20 μg) (18 mice), TNF receptor/IgG protein (100 μg) (12 mice), anti-TNF monoclonal antibody (mAb) (300 μg) (17 mice), methylprednisolone acetate (6 mice), an irrelevant human IgG1 monoclonal antibody (mAb) (6 mice), or saline (control). […]"}}}
{"smiles": "CC(=O)OCC(=O)[C@@]1(O)CC[C@H]2[C@@H]3C[C@H](C)C4=CC(=O)C=C[C@]4(C)[C@H]3[C@@H](O)C[C@@]21C", "note": "[Methylprednisolone acetate, methylprednisolone acetate]", "values": [{"measurement": "Increase (%) in limbs affected", "setting": "[1]", "result": 33, "unit": "%"}, {"measurement": "Limbs Affected (mean ± SEM) Day 1", "setting": "[1]; Day 1", "result": "1.00 ± 0.00"}, {"measurement": "Limbs Affected (mean ± SEM) Day 10", "setting": "[1]; Day 10", "result": "1.50 ± 0.22"}, {"measurement": "PIP Joints with Erosions (%)", "setting": "[2]", "result": "(67%)"}, {"measurement": "PIP Joints with Erosions (number/total)", "setting": "[2]", "result": "4/6"}]}
